# Key:
# Assay type in all cases: functional
# UACC-257 = experiment: Cytotoxicity against human UACC257 cells assessed as cellular growth at 0.01 uM after 48 hrs by SRB assay relative to control
# SK-MEL-5 = experiment: Cytotoxicity against human SK-MEL-5 cells assessed as cellular growth at 0.01 uM after 48 hrs by SRB assay relative to control
# SF-268 [1] = experiment: Cytotoxicity against human SF268 cells assessed as cellular growth at 0.01 uM after 48 hrs by SRB assay relative to control
# A549 = experiment: Cytotoxicity against human A549 cells assessed as cellular growth at 0.01 uM after 48 hrs by SRB assay relative to control
# HL-60(TB) = experiment: Cytotoxicity against human HL-60(TB) cells assessed as cellular growth at 0.01 uM after 48 hrs by SRB assay relative to control
# SK-MEL-28 [2] = experiment: Cytotoxicity against human SK-MEL-28 cells assessed as cellular growth at 100 uM after 48 hrs by SRB assay relative to control
# U-251 = experiment: Cytotoxicity against human U251 cells assessed as cellular growth at 100 uM after 48 hrs by SRB assay relative to control
# SR = experiment: Cytotoxicity against human SR cells assessed as cellular growth at 100 uM after 48 hrs by SRB assay relative to control
# SK-MEL-28 [3] = experiment: Cytotoxicity against human SK-MEL-28 cells assessed as cellular growth at 10 uM after 48 hrs by SRB assay relative to control
# MDA-MB-468 = experiment: Cytotoxicity against human MDA-MB-468 cells after 48 hrs by SRB assay; conditions: MDA-MB-468, 48 h
# MDA-MB-231 = experiment: Cytotoxicity against human MDA-MB-231 cells assessed as cellular growth at 1 uM after 48 hrs by SRB assay relative to control
# UO-31 = experiment: Cytotoxicity against human UO31 cells assessed as cellular growth at 1 uM after 48 hrs by SRB assay relative to control
# OVCAR-5 = experiment: Cytotoxicity against human OVCAR5 cells assessed as cellular growth at 1 uM after 48 hrs by SRB assay relative to control
# UACC-62 = experiment: Cytotoxicity against human UACC62 cells assessed as cellular growth at 1 uM after 48 hrs by SRB assay relative to control
# SF-268 [4] = experiment: Cytotoxicity against human SF268 cells assessed as cellular growth at 1 uM after 48 hrs by SRB assay relative to control
# NCI-H226 = experiment: Cytotoxicity against human NCI-H226 cells assessed as cellular growth at 1 uM after 48 hrs by SRB assay relative to control
# CCRF-CEM = experiment: Cytotoxicity against human CCRF-CEM cells assessed as cellular growth at 1 uM after 48 hrs by SRB assay relative to control
# BT-549 [5] = experiment: Cytotoxicity against human BT549 cells assessed as cellular growth at 0.1 uM after 48 hrs by SRB assay relative to control
# BT-549 [6] = experiment: Cytotoxicity against human BT549 cells after 48 hrs by SRB assay; conditions: BT-549, 48 h
# MCF7 = experiment: Cytotoxicity against human MCF7 cells after 48 hrs by SRB assay; conditions: MCF7, 48 h
# SN12C = experiment: Cytotoxicity against human SN12C cells after 48 hrs by SRB assay
# OVCAR-8 = experiment: Cytotoxicity against human OVCAR8 cells after 48 hrs by SRB assay; conditions: OVCAR-8, 48 h
# IGROV-1 [7] = experiment: Cytotoxicity against human IGROV1 cells after 48 hrs by SRB assay; conditions: IGROV-1, 48 h
# MDA-MB-435 = experiment: Cytotoxicity against human MDA-MB-435 cells after 48 hrs by SRB assay; conditions: MDA-MB-435, 48 h
# M14 = experiment: Cytotoxicity against human M14 cells after 48 hrs by SRB assay; conditions: M14, 48 h
# COLO 205 = experiment: Cytotoxicity against human COLO205 cells after 48 hrs by SRB assay; conditions: COLO 205, 48 h
# NCI-H322M = experiment: Cytotoxicity against human NCI-H322M cells after 48 hrs by SRB assay
# SK-OV-3 = experiment: Cytotoxicity against human SKOV3 cells assessed as cellular growth at 0.1 uM after 48 hrs by SRB assay relative to control
# IGROV-1 [8] = experiment: Cytotoxicity against human IGROV1 cells assessed as cellular growth at 0.1 uM after 48 hrs by SRB assay relative to control
# HOP-62 = experiment: Cytotoxicity against human HOP62 cells assessed as cellular growth at 0.1 uM after 48 hrs by SRB assay relative to control
# K562 = experiment: Cytotoxicity against human K562 cells assessed as cellular growth at 0.1 uM after 48 hrs by SRB assay relative to control
# ACHN = experiment: Cytotoxicity against human ACHN cells assessed as cellular growth at 0.01 uM after 48 hrs by SRB assay relative to control
# [9] = read-out: LC50 (the source's name)
# [10] = read-out: pLC50 (the source's name) (converted)
compound,measurement,setting,value
CN1CCN(CCCn2c3c(sc4ncccc43)c(=O)n3nnc(-c4ccccc4)c23)CC1,Activity,UACC-257,94%
same,Activity,SK-MEL-5,96%
same,Activity,SF-268 [1],96%
same,Activity,A549,97%
same,Activity,HL-60(TB),98%
same,Activity,SK-MEL-28 [2],-97%
same,Activity,U-251,-46%
same,Activity,SR,-42%
same,Activity,SK-MEL-28 [3],87%
same,GI50,MDA-MB-468; read-out: GI50,1.82 µM
same,CC50,MDA-MB-468; [9],5.96 µM
same,TGI,MDA-MB-468; read-out: TGI,3.29 µM
same,GI50,MDA-MB-468; read-out: pGI50 (converted),1.82 µM
same,CC50,MDA-MB-468; [10],6.03 µM
same,TGI,MDA-MB-468; read-out: pTGI (converted),3.31 µM
same,Activity,MDA-MB-231,87%
same,Activity,UO-31,51%
same,Activity,OVCAR-5,99%
same,Activity,UACC-62,84%
same,Activity,SF-268 [4],83%
same,Activity,NCI-H226,85%
same,Activity,CCRF-CEM,77%
same,Activity,BT-549 [5],98%
same,GI50,BT-549 [6]; read-out: GI50,14.7 µM
same,LC50 (concentration killing 50% of cells),BT-549 [6]; read-out: LC50,63.9 µM
same,TGI,BT-549 [6]; read-out: TGI,30.7 µM
same,GI50,BT-549 [6]; read-out: pGI50 (converted),14.8 µM
same,LC50 (concentration killing 50% of cells),BT-549 [6]; read-out: pLC50 (converted),64.6 µM
same,TGI,BT-549 [6]; read-out: pTGI (converted),30.9 µM
same,GI50,MCF7; read-out: GI50,1.53 µM
same,LC50,MCF7; read-out: LC50,5.82 µM
same,TGI,MCF7; read-out: TGI,2.99 µM
same,GI50,MCF7; read-out: pGI50 (converted),1.55 µM
same,LC50,MCF7; read-out: pLC50 (converted),5.75 µM
same,TGI,MCF7; read-out: pTGI (converted),3.02 µM
same,GI50,SN12C; read-out: GI50,1.81 µM
same,TGI,SN12C; read-out: TGI,4.07 µM
same,GI50,SN12C; read-out: pGI50 (converted),1.82 µM
same,TGI,SN12C; read-out: pTGI (converted),4.07 µM
same,GI50,OVCAR-8; read-out: GI50,1.93 µM
same,CC50,OVCAR-8; [9],> 100 µM
same,TGI,OVCAR-8; read-out: TGI,4.49 µM
same,GI50,OVCAR-8; read-out: pGI50 (converted),1.95 µM
same,CC50,OVCAR-8; read-out: pLC50 (converted),> 100 µM
same,TGI,OVCAR-8; read-out: pTGI (converted),4.47 µM
same,GI50,IGROV-1 [7]; read-out: GI50,2 µM
same,CC50,IGROV-1 [7]; [9],9.78 µM
same,TGI,IGROV-1 [7]; read-out: TGI,4.42 µM
same,GI50,IGROV-1 [7]; read-out: pGI50 (converted),2 µM
same,CC50,IGROV-1 [7]; [10],9.77 µM
same,TGI,IGROV-1 [7]; read-out: pTGI (converted),4.47 µM
same,GI50,MDA-MB-435; read-out: GI50,1.87 µM
same,CC50,MDA-MB-435; [9],6.68 µM
same,TGI,MDA-MB-435; read-out: TGI,3.54 µM
same,GI50,MDA-MB-435; read-out: pGI50 (converted),1.86 µM
same,CC50,MDA-MB-435; [10],6.76 µM
same,TGI,MDA-MB-435; read-out: pTGI (converted),3.55 µM
same,GI50,M14; read-out: GI50,1.87 µM
same,CC50,M14; [9],7.16 µM
same,TGI,M14; read-out: TGI,3.66 µM
same,GI50,M14; read-out: pGI50 (converted),1.86 µM
same,CC50,M14; [10],7.24 µM
same,TGI,M14; read-out: pTGI (converted),3.63 µM
same,GI50,COLO 205; read-out: GI50,1.63 µM
same,CC50,COLO 205; [9],6.42 µM
same,TGI,COLO 205; read-out: TGI,3.24 µM
same,GI50,COLO 205; read-out: pGI50 (converted),1.62 µM
same,CC50,COLO 205; [10],6.46 µM
same,TGI,COLO 205; read-out: pTGI (converted),3.24 µM
same,GI50,NCI-H322M; read-out: GI50,1.74 µM
same,CC50,NCI-H322M; [9],6.96 µM
same,TGI,NCI-H322M; read-out: TGI,3.48 µM
same,GI50,NCI-H322M; read-out: pGI50 (converted),1.74 µM
same,CC50,NCI-H322M; [10],6.92 µM
same,TGI,NCI-H322M; read-out: pTGI (converted),3.47 µM
same,Activity,SK-OV-3,94%
same,Activity,IGROV-1 [8],96%
same,Activity,HOP-62,84%
same,Activity,K562,98%
same,Activity,ACHN,105%
